The text below walks through data of patent US20080292699A1, “SOLID PHARMACEUTICAL DOSAGE UNIT FOR A[…] OF RHINORRHEA” (SOVEREIGN PHARMACEUTICALS, LTD., priority 2007, published 2008).

Counter-ions that a name gives are not always drawn.

The nature of the data set: Dissolution testing of the bi-layered tablet (USP I, baskets, 0.01 N HCl). The format is physicochemical. As to conditions: 500 mL 0.01 N HCl, 37° C., 100 rpm, average of six tablets.
[1] abbreviates: Time 2 hr, sustained release layer.
Where [2] appears, read: Time 4 hr, sustained release layer.
Setting [3] is: Time 8 hr, sustained release layer.

Procedure: Place 500 mL (+/−5 mL) of 0.01 N HCl in each vessel of the dissolution apparatus (USP I, baskets). Allow media to equilibrate to 37° C.+/−0.5° C. […] Select 6 tablets at random and record weight of each tablet. […] Put one tablet into each basket. Turn dissolution apparatus on to a rate of 100 rpm. […] Withdraw samples through a 45 μm porous polyethylene filter disc (Whatman GE/X or Millipore Millex-GN) at 45 minutes, 2, 4 and 8 hours. […] Inject filtered samples into a gas chromatograph, injecting one standard (as used for calibration) after every six samples. Gas Chromatography: Instrument: Waters Alliance 2695 Separation Module Column: Waters μBondapak C18 Column, 10 μm, 3.9×300 mm; PN WAT027324 Column Temperature: 52° C. Flow Rate: 1.8 mL per minute Injection Volume: 200 μL Detector: UV at 257 nm Mobile Phase: A: Methanol • B: Pic-B8 (for every liter of Pic-B8 aqueous solution, dissolve 2.164 g of 1-octanesulfonic acid sodium salt in water and add 20 mL of glacial acetic acid) [table]

`CN(C)CCC(c1ccc(Cl)cc1)c1ccccn1` (stereo not shown) [CPM, Chlorpheniramine Maleate]: the “Average Amount Released [%]” value reads like this: under setting [1], 33.3%; under setting [2], 57.1%; under setting [3], 87.0%.

In the case of `CNC[C@H](O)c1cccc(O)c1` [PEH, Phenylephrine HCl], the “Average Amount Released [%]” value under setting [1] was determined as 43.6%, the “Average Amount Released [%]” value under setting [2] was 65.8% and the “Average Amount Released [%]” value under setting [3] came to 89.0%.

For the molecule Methscopolamine Nitrate [MSPN], the “Average Amount Released [%]” value (Time 45 min, immediate release layer) is reported as 100.2%.
